Data as given in article PMC12406196, “Anticoronavirus Activity of Uridine Glycoconjugates Containing a 1,2,3-Triazole Moiety” (Journal of Medicinal Chemistry, 2025).

system: SARS-CoV-2 S protein (S2 domain); format: cell-based; conditions: Western blot with S2-specific antibodies

Structure (SMILES) | S2 domain levels in the medium of SC-VLP-producing cells
CC(=O)OC[C@H]1O[C@@H](OCc2cn(C[C@H]3O[C@@H](n4ccc(=O)[nH]c4=O)[C@H](O[Si](C)(C)C(C)(C)C)[C@@H]3O[Si](C)(C)C(C)(C)C)nn2)[C@H](OC(C)=O)[C@@H](OC(C)=O)[C@H]1OC(C)=O [Compound 15, 2′,3′-di-O-tert-Butyldimethylsilyl-5′-deoxy-5′-[4-(2″,3″,4″,6″-tetra-O-acetyl-β-D-galactopyranosyloxymethyl)-1,2-3-triazol-1-yl]-uridine] | minor alterations
CC(=O)OC[C@H]1O[C@@H](SCc2cn(C[C@H]3O[C@@H](n4ccc(=O)[nH]c4=O)[C@H](O[Si](C)(C)C(C)(C)C)[C@@H]3O[Si](C)(C)C(C)(C)C)nn2)[C@H](OC(C)=O)[C@@H](OC(C)=O)[C@@H]1OC(C)=O [Compound 20, 2′,3′-di-O-tert-Butyldimethylsilyl-5′-deoxy-5′-[4-(2″,3″,4″,6″-tetra-O-acetyl-β-D-glucopyranosylthiomethyl)-1,2-3-triazol-1-yl]-uridine] | minor alterations
CC(=O)OC[C@H]1O[C@@H](SCc2cn(C[C@H]3O[C@@H](n4ccc(=O)[nH]c4=O)[C@H](O[Si](C)(C)C(C)(C)C)[C@@H]3O[Si](C)(C)C(C)(C)C)nn2)[C@H](OC(C)=O)[C@@H](OC(C)=O)[C@H]1OC(C)=O [Compound 21, 2′,3′-di-O-tert-Butyldimethylsilyl-5′-deoxy-5′-[4-(2″,3″,4″,6″-tetra-O-acetyl-β-D-galactopyranosylthiomethyl)-1,2-3-triazol-1-yl]-uridine] | more pronounced reduction
CC(=O)OC[C@H]1O[C@@H](SCn2cc(COC[C@H]3O[C@@H](n4ccc(=O)[nH]c4=O)[C@H](O[Si](C)(C)C(C)(C)C)[C@@H]3O[Si](C)(C)C(C)(C)C)nn2)[C@H](OC(C)=O)[C@@H](OC(C)=O)[C@@H]1OC(C)=O [Compound 24, 2′,3′-di-O-tert-Butyldimethylsilyl-5′-O-[(1-(2″,3″,4″,6″-tetra-O-acetyl-β-D-glucopyranosylthiomethyl)-1,2-3-triazol-4-yl)-methyl]-uridine] | minor alterations
